Test results: patent publication US10364256B2 (GlaxoSmithKline Intellectual Property Development Limited, priority 2015, dated 2019)
Where two headings read alike, the source gives them in different places.

How the values were obtained:
[1] = molecular target: T1, Keap1 Kelch domain (321-609) / TAMRA-labeled 16mer NRF2 peptide (ETGE motif) (Homo sapiens, UniProt Q14145); assay: NRF2-Keap1 FP Assay (Keap1 Kelch fluorescence polarization); type: binding; details: 20 nM Keap1 (321-609), 8 nM Tamra labeled peptide
T1 construct: the Kelch domain (321-609) of Keap1 is used
T1 sequence (Q14145 321-609): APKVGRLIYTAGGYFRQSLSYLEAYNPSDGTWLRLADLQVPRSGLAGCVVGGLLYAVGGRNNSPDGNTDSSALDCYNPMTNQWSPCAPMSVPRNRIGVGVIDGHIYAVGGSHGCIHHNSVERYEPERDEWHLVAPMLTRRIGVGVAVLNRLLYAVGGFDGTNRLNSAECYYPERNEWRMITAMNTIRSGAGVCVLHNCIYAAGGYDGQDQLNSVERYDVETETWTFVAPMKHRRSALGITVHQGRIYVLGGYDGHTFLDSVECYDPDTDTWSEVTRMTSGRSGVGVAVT
Text: One model for the NRF2-Keap1 interaction is through two binding sites in the Neh2 domain on NRF2. The two sites are referred to as the DLG binding motif (latch domain, uM affinity) and the ETGE binding motif (hinge domain, nM affinity). The Keap1 protein consists of an N-terminal region (NTR), a broad complex, tramtrack, and brick a′ brac domain (BTB), an intervening region (IVR), a double glycine repeat domain (DGR or Kelch), and a C-terminal region. The DLG and ETGE motifs of NRF2's Neh2 domain bind to the Kelch domain of Keap1 at different affinities. In the Keap1 Kelch fluorescence polarization (FP) assay, a TAMRA-labeled 16mer peptide (AFFAQLQLDEETGEFL) containing the ETGE motif of NRF2 and the Kelch domain (321-609) of Keap1 is used. The assay determines if a compound interferes with the binding between Keap1 […] and the TAMRA-labeled peptide. Binding of TAMRA-labeled NRF2 peptide to Keap1 (321-609) results in a high FP signal. If a compound interferes with the binding between the peptide and the protein, it will cause the assay signal to decrease. Thus, assay signal is inversely proportional to binding inhibition.
100 nl of 100× compound dose response curves (serial 3-fold dilutions) in DMSO are stamped using an Echo liquid handling system (Labcyte) into 384-well low volume black assay plates (Greiner, #784076), with DMSO in columns 6 and 18. The top concentration of compound is located in columns 1 and 13. Keap1 (321-609) is diluted to 40 nM (2×) in 1× assay buffer (50 mM Tris, pH 8.0, 100 mM NaCl, 5 mM MgCl2, 1 mM DTT, 2 mM CHAPS, and 0.005% BSA) and 5 ul is added using a Multidrop Combi (Thermo Electron Corporation) equipped with a metal tip dispenser to all wells of the compound plate, except column 18. Column 18 receives only 5 ul of assay buffer. Immediately, 5 uL of 16 nM (2×) of Tamra labeled peptide (AFFAQLQLDEETGEFL, 21st Century Biochemicals) is added to all wells of the plate. The plates are spun at 500 rpm for 1 min, incubated for 1 hr at room temperature, and read on an Analyst GT (Molecular Devices) equipped with excitation (530/25 nm) and emission (580/10 nm) filters designed for Tamra probes. A 561 nm dichroic mirror is also used in the Analyst. The final assay concentrations of Keap1 (321-609) and Tamra labeled peptide are 20 nM and 8 nM, respectively. Fluorescence measurements, represented as mP, are used in the transformation of the data. Compound activity is calculated based on percent inhibition, normalized against controls in the assay (Control 1 contains the Tamra peptide and Keap1 (321-609) together (0% response) and control 2 contains the Tamra peptide alone (100% response)). Data analysis is handled using the software package Abase XE (Surrey, United Kingdom. The % inhibition values are calculated by the equation: 100−(100*((compound response−average control 2)/(average control 1−average control2))). For calculation of pIC50s, Abase XE uses a four parameter equation. pIC50 is the negative log of the IC50.

[2] = molecular target: T2, full length Keap1 protein / full length NRF2 protein (Homo sapiens, UniProt Q14145); assay: NRF2-Keap1 TR-FRET Low Protein Assay; type: binding; details: 1.25 nM Keap1 FlagHis and 2.5 nM biotin-NRF2 added
T2 construct: full length NRF2 protein and full length Keap1 protein (Keap1 exists a dimer) are used; His
T2 sequence (Q14145 whole entry): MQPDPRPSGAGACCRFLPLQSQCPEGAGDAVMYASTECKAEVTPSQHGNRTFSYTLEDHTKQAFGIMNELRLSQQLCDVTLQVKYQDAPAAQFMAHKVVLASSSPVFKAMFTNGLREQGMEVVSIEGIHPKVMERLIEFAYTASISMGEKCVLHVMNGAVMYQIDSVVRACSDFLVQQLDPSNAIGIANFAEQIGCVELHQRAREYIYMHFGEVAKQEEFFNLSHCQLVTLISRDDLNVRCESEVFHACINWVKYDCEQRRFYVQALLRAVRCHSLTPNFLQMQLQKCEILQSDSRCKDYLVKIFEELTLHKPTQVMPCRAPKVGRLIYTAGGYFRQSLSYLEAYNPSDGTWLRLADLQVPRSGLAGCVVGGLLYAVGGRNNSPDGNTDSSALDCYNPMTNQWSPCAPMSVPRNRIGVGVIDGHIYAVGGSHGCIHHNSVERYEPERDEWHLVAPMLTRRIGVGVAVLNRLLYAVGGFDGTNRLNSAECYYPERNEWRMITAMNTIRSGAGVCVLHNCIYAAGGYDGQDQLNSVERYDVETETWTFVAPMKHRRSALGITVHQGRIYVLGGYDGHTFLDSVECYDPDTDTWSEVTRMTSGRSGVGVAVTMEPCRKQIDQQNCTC
Text: NRF2-Keap1 TR-FRET Low Protein Assay In the NRF2-Keap1 TR-FRET (time-resolved fluorescence resonance energy transfer) low protein assay, full length NRF2 protein and full length Keap1 protein (Keap1 exists a dimer) are used. The assay detects a compound's ability to displace the binding of Keap1 […] with biotinylated Avi-NRF2 protein. Biotin-NRF2 binds to streptavidin-europium (a component of the detection mix) and Keap1 […] is recognized by anti-Flag APC (allophycocyanin) antibody (also a component of the detection mix). If binding occurs between the two proteins, there will be an energy transfer from the Eu+3 (donor) at 615 nm to the APC (acceptor) at 665 nm. A potential NRF2 inhibitor will cause a reduction in the TR-FRET signal by interfering with the binding of Keap1 to NRF2. Ten nanoliters of 100× compound dose response curves (serial 3-fold dilutions) in DMSO are stamped using an Echo liquid handling system (Labcyte) into 384-well, low volume, black assay plates (Greiner, #784076), with DMSO in columns 6 and 18. An additional 90 nl DMSO is added to each well, to bring the total volume to 100 nl per well. The top concentration of compound is located in columns 1 and 13, with the serial dilutions going across the row. All reagents are diluted in assay buffer (50 mM Tris, pH 8.0, 5 mM MgCl2, 100 mM NaCl, 0.005% BSA, 1 mM DTT, and 2 mM CHAPS. The BSA, DTT, and CHAPS are added to the assay buffer on the day of assay. […] Wells in column 18 receive 5 ul of assay buffer instead. Plates are centrifuged at 500 rpm for 1 minute, covered with a plate lid, and incubated at 37° C. for 2.25 hours. Plates are then removed from the incubator and allowed to cool to RT for 15 minutes. Five microliters of 2.5 nM biotin-NRF2 protein is then added to all wells of the plates and the plates are spun at 500 rpm for 1 minute, followed by incubating at 4° C. for 1.25 hours. The plates are then allowed to warm to RT for 15 minutes, followed by the addition of 10 ul of detection mix (1 nM Streptavidin Eu+W1024 and 5 ug/ml mouse anti-DYKDDDDK IgG conjugated to SureLight APC antibody; both from Columbia Biosciences) to all wells. Plates are spun at 500 rpm for 1 minute, incubated for 1 hour at RT, and read on an Envision plate reader using a 320 nm excitation filter and 615 nm and 665 nm emission filters. […] Data analysis is handled using the software package Abase XE (Surrey, United Kingdom). […] For calculation of pIC50s, Abase XE uses a four parameter equation. pIC50 is the negative log of the IC50.

[3] = tested on: NQO1 specific enzyme activity in BEAS-2B cells (marker for NRF2 activation); assay: BEAS-2B NQO1 MTT Assay; type: cell-based; details: Homo sapiens, compound incubated 48 hours, read-out: EC50 (NQO1 specific enzyme activity induction)
Text: BEAS-2B NQO1 MTT Assay NAD(P)H:quinone oxidoreductase 1 (NQO1), also called DT diaphorase, is a homodimeric FAD-containing enzyme that catalyzes obligatory NAD(P)H-dependent two-electron reductions of quinones and protects cells against the toxic and neoplastic effects of free radicals and reactive oxygen species arising from one-electron reductions. The transcription of NQO1 is finely regulated by NRF2, and thus NQO1 activity is a good marker for NRF2 activation. On day one, frozen BEAS-2B cells (ATCC) are thawed in a water bath, counted, and re-suspended at a concentration of 250,000 cells/mL. Fifty microliters of cells are plated in 384 well black clear-bottomed plates. Plates are incubated at 37° C., 5% CO2 overnight. On day two, plates are centrifuged and 50 nL of compound or controls are added to the cells. Plates are then incubated at 37° C., 5% CO2 for 48 hours. On day four, medium is aspirated from the plate and crude cell lysates are made by adding 13 uL of 1× Cell Signaling Technologies lysis buffer with 1 Complete, Mini, EDTA-free Protease Inhibitor Tablet (Roche) for each 10 mL of lysis buffer. After lysis plates are incubated for 20 minutes at room temperature. Two microliters of lysate are removed for use in Cell Titer Glo assay (Promega) and MTT cocktail is prepared (Prochaska et. al. 1998) for measurement of NQO1 activity. Fifty microliters of MTT cocktail is added to each well, plate is centrifuged, and analyzed on an Envision plate reader (Perkin Elmer) using Absorbance 570 nm label for 30 minutes. Product formation is measured kinetically and the pEC50 of NQO1 specific activity induction is calculated by plotting the change in absorbance (Delta OD/min) versus the log of compound concentration followed by 3-parameter fitting. pEC50 is the negative log of the EC50.

| SMILES | IC50 [1] [nM] | IC50 [2] [nM] | EC50 [3] [nM] | EC50 ([3]; BEAS-2B, 48 h) [nM] |
| --- | --- | --- | --- | --- |
| C[C@H](Oc1cccc(-c2cccc(-n3ncc(C(=O)O)c3[C@@H]3C[C@H]3c3cn(Cc4ccccc4)nn3)c2)c1)C1CCCCC1 (racemic) [Example 87, 5-(trans-2-(1-Benzyl-1H-1,2,3-triazol-4-yl)cyclopropyl)-1-(3′-((S)-1-cyclohexylethoxy)-[1,1′-biphenyl]-3-yl)-1H-pyrazole-4-carboxylic Acid] | 100 to 1000 | 100 to 1000 | 10 to 100 |  |
| CC(C)n1cc([C@@H]2C[C@H]2c2c(C(=O)O)cnn2-c2cccc(-c3cccc(O[C@@H](C)C4CCCCC4)c3)c2)nn1 (racemic) [Example 91, 1-(3′-((S)-1-Cyclohexylethoxy)-[1,1′-biphenyl]-3-yl)-5-(trans-2-(1-isopropyl-1H-1,2,3-triazol-4-yl)cyclopropyl)-1H-pyrazole-4-carboxylic acid] | 10 to 100 | 10 to 100 | 1 to 10 |  |
| C[C@H](Oc1cccc(-c2cccc(-n3ncc(C(=O)O)c3[C@@H]3C[C@H]3c3cn(-c4ccccc4)nn3)c2)c1)C1CCCCC1 (racemic) [Example 92] | 10 to 100 | 100 to 1000 | 1 to 10 |  |
| C[C@H](Oc1cccc(-c2cccc(-n3ncc(C(=O)O)c3[C@@H]3C[C@H]3c3cn(C4CN(C)C4)nn3)c2)c1)C1CCCCC1 (racemic) [Example 94, 1-(3′-((S)-1-Cyclohexylethoxy)-[1,1′-biphenyl]-3-yl)-5-(trans-2-(1-(1-methylazetidin-3-yl)-1H-1,2,3-triazol-4-yl)cyclopropyl)-1H-pyrazole-4-carboxylic Acid] | 10 to 100 | 10 to 100 | 10 to 100 |  |
| C[C@H](Oc1cccc(-c2cccc(-n3ncc(C(=O)O)c3[C@H]3C[C@H]3c3cn(C)nn3)c2)c1)C1CCCCC1 (racemic) [Example 101, 1-(3′-((S)-1-cyclohexylethoxy)-[1,1′-biphenyl]-3-yl)-5-(cis-2-(1-methyl-1H-1,2,3-triazol-4-yl)cyclopropyl)-1H-pyrazole-4-carboxylic Acid] | > 10000 | 1000 to 10000 |  | 100 to 1000 |
| C[C@H](Oc1cccc(-c2cccc(-n3ncc(C(=O)O)c3[C@@H]3C[C@H]3CCCO)c2)c1)C1CCCCC1 (racemic) [Example 102, 1-(3′-((S)-1-Cyclohexylethoxy)-[1,1′-biphenyl]-3-yl)-5-(trans-2-(3-hydroxypropyl)cyclopropyl)-1H-pyrazole-4-carboxylic Acid] | 1000 to 10000 | 1000 to 10000 | 100 to 1000 |  |

Now from value to molecule, other results behind:

| IC50 [1] [nM] | IC50 [2] [nM] | SMILES | EC50 [3] [nM] | EC50 ([3]; BEAS-2B, 48 h) [nM] |
| --- | --- | --- | --- | --- |
| 10 to 100 | 10 to 100 | C[C@H](Oc1cccc(-c2cccc(-n3ncc(C(=O)O)c3[C@@H]3C[C@H]3c3cn(C4CNC4)nn3)c2)c1)C1CCCCC1 (racemic) [Example 85, 5-(trans-2-(1-(Azetidin-3-yl)-1H-1,2,3-triazol-4-yl)cyclopropyl)-1-(3′-((S)-1-cyclohexylethoxy)-[1,1′-biphenyl]-3-yl)-1H-pyrazole-4-carboxylic Acid] | 100 to 1000 |  |
| 10 to 100 | 10 to 100 | C[C@H](Oc1cccc(-c2cccc(-n3ncc(C(=O)O)c3[C@@H]3C[C@H]3c3cn(C4CCNCC4)nn3)c2)c1)C1CCCCC1 (racemic) [Example 86, 1-(3′-((S)-1-cyclohexylethoxy)-[1,1′-biphenyl]-3-yl)-5-(trans-2-(1-(piperidin-4-yl)-1H-1,2,3-triazol-4-yl)cyclopropyl)-1H-pyrazole-4-carboxylic Acid] | 100 to 1000 |  |
| 10 to 100 | 10 to 100 | C[C@H](Oc1cccc(-c2cccc(-n3ncc(C(=O)O)c3[C@@H]3C[C@H]3c3cn(CCN(C)C)nn3)c2)c1)C1CCCCC1 (racemic) [Example 88, 1-(3′-((S)-1-Cyclohexylethoxy)-[1,1′-biphenyl]-3-yl)-5-(trans-2-(1-(2-(dimethylamino)ethyl)-1H-1,2,3-triazol-4-yl)cyclopropyl)-1H-pyrazole-4-carboxylic acid] | 10 to 100 |  |
| 10 to 100 | < 10 | C[C@H](Oc1cccc(-c2cccc(-n3ncc(C(=O)O)c3[C@@H]3C[C@H]3c3cn(CCO)nn3)c2)c1)C1CCCCC1 (racemic) [Example 90, 1-(3′-((S)-1-Cyclohexylethoxy)-[1,1′-biphenyl]-3-yl)-5-(trans-2-(1-(2-hydroxyethyl)-1H-1,2,3-triazol-4-yl)cyclopropyl)-1H-pyrazole-4-carboxylic acid] | 10 to 100 |  |
